{"source": "patent US7285396B1", "about": "“Aβ-heme peroxidase” (Children's Hospital & Research Center at Oakland, priority 2006, dated 2007)", "key": {"[1]": {"target": "T1, Aβ-heme peroxidase (Homo sapiens, UniProt P05067)", "T1 construct": "Amyloid-β (Aβ) peptide (American Peptide, Sunnyvale, Calif.) is dissolved in distilled deionized water; purchased American Peptide, Sunnyvale, Calif", "T1 sequence (P05067 672-711 limits assumed)": "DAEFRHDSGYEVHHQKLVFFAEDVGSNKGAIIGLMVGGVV", "assay": "Inhibition of Aβ-heme peroxidase activity (TMB assay or HPLC); inhibitor screen", "format": "biochemical", "conditions": "for identified as inhibitor of Aβ-heme peroxidase activity in library screen: TMB assay; for peroxidase activity of Aβ-heme: TMB assay or HPLC"}, "[2]": {"tested_on": "Tg2576 APPSw transgenic mouse", "conditions": "chronic dose of curcumin, APPSw mice; Lim 2001; cited from earlier work"}, "[3]": {"tested_on": "Tg2576 APPSw transgenic mouse", "conditions": "curcumin-treated Tg2576 APPSw mouse; Lim et al 2001; cited from earlier work"}, "[4]": {"target": "Aβ(1-40) (Homo sapiens, UniProt P05067)", "sequence (P05067 672-711 limits assumed)": "as above", "conditions": "reference 13; cited from earlier work"}, "[5]": {"target": "Aβ(1-42) (Homo sapiens, UniProt P05067)", "sequence (P05067 672-713 limits assumed)": "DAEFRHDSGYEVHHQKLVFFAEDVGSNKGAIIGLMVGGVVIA", "conditions": "reference 13; cited from earlier work"}, "[6]": {"tested_on": "human neuroblastoma (SHSY5Y) cells", "assay": "Effect of Aβ on intracellular iron / iron uptake in SHSY5Y cells", "format": "cell-based"}, "[7]": {"tested_on": "SHSY5Y cells", "format": "cell-based, human", "description": "(§1) The effect of Aβ on heme synthesis was used to test the biological effect of the Aβ and heme interaction. We expected an increase in heme synthesis due to depletion of regulatory heme if the binding between heme and Aβ occurs in the cell. […] A 40% increase in heme synthesis was seen after 2 h incubation with 0.1 μM Aβ. A 4-fold and 13-fold increase in heme synthesis was seen after 1 h of incubation with 1 and 10 μM Aβ, respectively. A 2.5-fold and 18-fold increase in heme synthesis was seen after 2 h of incubation with 1 and 10 μM Aβ, respectively. An increase in the uptake of cofactors of heme biosynthesis is necessary to support heme synthesis. […] A 55% increase in iron was seen after 2 h of incubation with 0.1 μM Aβ. […] A 2-fold and 8-fold increase in iron uptake was seen after 2 h of incubation with 1 and 10 μM Aβ, respectively. The exposure of SHSY5Y cells to Aβ was not toxic as measured by trypan blue exclusion tests and compared with controls."}, "[8]": {"tested_on": "human neuroblastoma (SHSY5Y) cells", "assay": "Effect of Aβ on heme synthesis in SHSY5Y cells", "format": "cell-based", "description": "as §1"}}}
{"compound": "Cc1cc(N(C)C)cc2[s+]c3cc(N(C)C)cc(C)c3nc12", "note": "[1-9-dimethyl methylene blue]", "values": [{"measurement": "identified as inhibitor of Aβ-heme peroxidase activity in library screen", "setting": "[1]", "value": "inhibitors"}]}
{"compound": "O=C(O)CCNO", "note": "[N-(2-carboxyethyl)hydroxylamine]", "values": [{"measurement": "identified as inhibitor of Aβ-heme peroxidase activity in library screen", "setting": "[1]", "value": "inhibitors"}]}
{"compound": "O=[N+]([O-])CCCNO", "note": "[N-(3-nitropropyl)hydroxylamine]", "values": [{"measurement": "identified as inhibitor of Aβ-heme peroxidase activity in library screen", "setting": "[1]", "value": "inhibitors"}]}
{"compound": "OCCCCNO", "note": "[N-(4-hydroxybutyl)hydroxylamine]", "values": [{"measurement": "identified as inhibitor of Aβ-heme peroxidase activity in library screen", "setting": "[1]", "value": "inhibitors"}]}
{"compound": "CC(=O)NO", "note": "[N-(acetyl)hydroxylamine]", "values": [{"measurement": "identified as inhibitor of Aβ-heme peroxidase activity in library screen", "setting": "[1]", "value": "inhibitors"}]}
{"compound": "O=C(CNO)Cc1ccccc1", "note": "[N-(benzylcarbonyl)methylhydroxylamine]", "values": [{"measurement": "identified as inhibitor of Aβ-heme peroxidase activity in library screen", "setting": "[1]", "value": "inhibitors"}]}
{"compound": "ONCc1ccccc1", "note": "[N-benzylhydroxylamine (NBHA), N-benzylhydroxylamine]", "values": [{"measurement": "peroxidase activity of Aβ-heme", "setting": "[1]; 100 μM N-benzylhydroxylamine", "value": "significantly inhibited"}]}
{"compound": "ONC1CCCCC1", "note": "[N-cyclohexylhydroxylamine]", "values": [{"measurement": "identified as inhibitor of Aβ-heme peroxidase activity in library screen", "setting": "[1]", "value": "inhibitors"}]}
{"compound": "CC(C)NO", "note": "[N-isopropylhydroxylamine]", "values": [{"measurement": "identified as inhibitor of Aβ-heme peroxidase activity in library screen", "setting": "[1]", "value": "inhibitors"}]}
{"compound": "CC(C)(C)NO", "note": "[N-tert-butylhydroxylamine]", "values": [{"measurement": "identified as inhibitor of Aβ-heme peroxidase activity in library screen", "setting": "[1]", "value": "inhibitors"}]}
{"compound": "CN(C)c1ccc2nc3ccc(N)cc3[s+]c2c1.[Cl-]", "note": "[azure A]", "values": [{"measurement": "identified as inhibitor of Aβ-heme peroxidase activity in library screen", "setting": "[1]", "value": "inhibitors"}]}
{"compound": "CNc1ccc2nc3ccc(N)cc3[s+]c2c1.[Cl-]", "note": "[azure C]", "values": [{"measurement": "identified as inhibitor of Aβ-heme peroxidase activity in library screen", "setting": "[1]", "value": "inhibitors"}]}
{"compound": "COc1cc(/C=C/C(=O)CC(=O)/C=C/c2ccc(O)c(OC)c2)ccc1O", "note": "[curcumin]", "values": [{"measurement": "insoluble Aβ", "setting": "[2]", "value": "significantly reduces"}, {"measurement": "soluble Aβ", "setting": "[2]", "value": "significantly reduces"}, {"measurement": "peroxidase activity of Aβ-heme", "setting": "[1]; 1 μM curcumin", "value": "significantly inhibited"}, {"measurement": "oxidative damage", "setting": "[3]", "value": "reduced oxidative damage"}]}
{"compound": "C=CC1=C(C)c2cc3[n-]c(cc4[n-]c(cc5nc(cc1n2)C(C)=C5C=C)c(C)c4CCC(=O)O)c(CCC(=O)O)c3C.[Fe+2]", "note": "[heme]", "values": [{"measurement": "aggregation of Aβ(1-40)", "setting": "[4]", "value": "prevented aggregation"}, {"measurement": "aggregation of Aβ(1-42)", "setting": "[5]", "value": "prevented aggregation"}]}
{"compound": "CCNc1cc2[s+]c3cc(NCC)c(C)cc3nc2cc1C.[Cl-]", "note": "[new methylene blue]", "values": [{"measurement": "identified as inhibitor of Aβ-heme peroxidase activity in library screen", "setting": "[1]", "value": "inhibitors"}]}
{"compound": "Cc1cc2nc3ccc(N(C)C)cc3[s+]c2cc1N.[Cl-]", "note": "[toluidine blue]", "values": [{"measurement": "identified as inhibitor of Aβ-heme peroxidase activity in library screen", "setting": "[1]", "value": "inhibitors"}]}
{"compound": "Aβ: Amyloid-β (Aβ) peptide (American Peptide, Sunnyvale, Calif.)", "values": [{"measurement": "increase in iron", "setting": "[6]; 0.1 μM Aβ, 2 h incubation", "value": 55, "unit": "%"}, {"measurement": "increase in iron uptake", "setting": "[6]; 1 μM Aβ, 1 h incubation", "value": 4, "unit": "fold"}, {"measurement": "increase in iron uptake", "setting": "[6]; 10 μM Aβ, 1 h incubation", "value": 12.5, "unit": "fold"}, {"measurement": "increase in iron uptake", "setting": "[6]; 10 μM Aβ, 2 h incubation", "value": 8, "unit": "fold"}, {"measurement": "intracellular iron", "setting": "[6]; Aβ 0.1, 1 and 10 μM", "value": "significantly increased"}, {"measurement": "toxicity by trypan blue exclusion", "setting": "[7]", "value": "not toxic"}, {"measurement": "increase in heme synthesis", "setting": "[8]; 0.1 μM Aβ, 2 h incubation", "value": 40, "unit": "%"}, {"measurement": "increase in heme synthesis", "setting": "[8]; 1 μM Aβ, 1 h incubation", "value": 4, "unit": "fold"}, {"measurement": "increase in heme synthesis", "setting": "[8]; 1 μM Aβ, 2 h incubation", "value": 2.5, "unit": "fold"}, {"measurement": "increase in heme synthesis", "setting": "[8]; 10 μM Aβ, 1 h incubation", "value": 13, "unit": "fold"}, {"measurement": "increase in heme synthesis", "setting": "[8]; 10 μM Aβ, 2 h incubation", "value": 18, "unit": "fold"}, {"measurement": "synthesis of heme", "setting": "[8]; Aβ 0.1, 1 and 10 μM", "value": "significantly increased"}]}
{"compound": "azure B", "values": [{"measurement": "identified as inhibitor of Aβ-heme peroxidase activity in library screen", "setting": "[1]", "value": "inhibitors"}]}
{"compound": "coproporphyrin I", "values": [{"measurement": "identified as inhibitor of Aβ-heme peroxidase activity in library screen", "setting": "[1]", "value": "inhibitors"}]}
{"compound": "coproporphyrin III", "values": [{"measurement": "identified as inhibitor of Aβ-heme peroxidase activity in library screen", "setting": "[1]", "value": "inhibitors"}]}
{"compound": "uroporphyrin I", "values": [{"measurement": "identified as inhibitor of Aβ-heme peroxidase activity in library screen", "setting": "[1]", "value": "inhibitors"}]}
{"compound": "uroporphyrin III", "values": [{"measurement": "identified as inhibitor of Aβ-heme peroxidase activity in library screen", "setting": "[1]", "value": "inhibitors"}]}
